Assay results from patent US7365096B2, “Methods for selectively inhibiting Janus tyrosine kinase 3 (Jak3)” (Board of Regents, The University of Texas System, priority 2002, dated 2008).
Read-outs that look alike come from different tables or passages of the source.

Assays:
[1] = system: γc/Jak3-dependent PHA-activated human T cells; experiment: Proliferation of PHA-activated human T cells ([3H]-thymidine); format: cell-based; details: for IC50: Homo sapiens
Description: (§1) Cell culture and treatment. The rat T-cell line Nb2-11c, originally developed by Dr. Peter Gout (Vancouver, Canada), was grown in RPMI-1640 with 10% fetal calf serum (Intergen, cat. no. 1020-90), 2 mM L-glutamine, 5 mM HEPES, pH 7.3, and penicillin-streptomycin (50 IU/ml and 50 μg/ml, respectively), at 37° C./5% CO2. Freshly explanted normal human T lymphocytes purified by isocentrifugation (Ficoll®; EM Science, Gibbstown, N.J.) were phytohemagglutinin (PHA)-activated for 72 hours as previously described.^23 T lymphocytes were made quiescent by washing and incubating for 24 hours in RPMI-1640 medium containing 1% fetal calf serum before exposure to cytokines. […] The Mannich base 649641P (NC1153) was generously provided by Dr. Jonathan Dimmock College of Pharmacy, University of Saskatchewan, Saskatoon, Saskatchewan, Canada. All cells were then stimulated with 1 nM recombinant human IL-2 (Hoffman-LaRoche, Basel, Switzerland), IL4 or IL7 (PeproTech), or ovine prolactin (PRL) supplied by the National Hormone and Pituitary Program, National Institute of Diabetes, Digestive, and Kidney Disease (Bethesda, Md.), at 37° C. Cell pellets were frozen at −70° C.
(§2) Proliferation assays. Quiescent human primary T-cells, YT or rat Nb2-11c T-cells (5.0×10^4/well) were plated in flat-bottom, 96-well microtiter plates in 200 μl of quiescent media in the absence or presence of 1 nM IL-2, -4, -7 (PeproTech, Rock Hill, N.J.), or PRL. Next, cells were treated for 16 hours with the Mannich base drug and then pulsed for 4 hours with [^3H]-thymidine (0.5 μCi/200 μl) and harvested onto fiberglass filters. [^3H]-thymidine incorporation was analyzed by liquid scintillation counting as previously described,^23 or using standard techniques that are well known in the art.

[2] = system: rat T cell line (Nb2-11c); experiment: Proliferation of rat Nb2-11c T cells, IL-2 (Jak3) versus PRL (Jak2) stimulated; format: cell-based
Description: as §1, §2
The rat T cell line (Nb2-11c) was chosen because it responds to either PRL/Jak2 or IL-2/Jak3 stimulation.
FIG. 14B through FIG. 39B show the chemical formulas of various Mannich base compounds and others (shown as salts) that were screened for ability to inhibit proliferation in prolactin or IL2 stimulated T-cells. […]

adapter protein Shc = experiment: Shc tyrosine phosphorylation (phospho-Western blot); format: cell-based; details: phospho-Western blots
Description: (§3) Solubilization of membrane proteins, immunoprecipitation, and Western blot analysis. Frozen cell pellets were thawed on ice and solubilized in 1% TX-100 lysis buffer (10^8 cells/ml) and clarified by centrifugation, as previously described.^16 For human T-cells, supernates were incubated rotating end over end for 2 hours at 4° C. with either 5 μl/ml polyclonal rabbit antisera raised against peptides derived from the unique COOH-termini of Jak3 (amino acid [a.a.] 1104-1124), carboxyl termini of human Stat5a (a.a. 775-794) or Stat5b (a.a. 777-787).^26 Ab and immunoprecipitated proteins were captured by incubation for 30 minutes with Protein A-Sepharose beads (Pharmacia, Piscataway, N.J.), sedimented for purification, and eluted by boiling in 2×SDS-sample buffer (20% Glycerol, 10% 2-Mercaptoethanol, 4.6% SDS, 0.004% Bromophenol blue in 0.125 M Tris pH 6.8) for 4 minutes. For phosphoMapk assays, approximately 25 μg of total cell lysate was dissociated in SDS-sample buffer and separated on 10% (all others on 7.5%) SDS-PAGE under reducing conditions. […]

[3] = system: Jak2/Stat5a signaling pathway; experiment: Prolactin-stimulated Jak2/Stat5a signaling in rat Nb2 cells (phosphotyrosine Western blot); format: cell-based; details: increasing concentration, PRL stimulated
Description: as §3
In FIG. 9A, it can be seen that NC1153 inhibits Jak3 driven transcription factor-Stat5a/b in PHA activated T-cells treated with increasing concentrations of NC1153 in a dose dependent manner as measured via EMSA analysis (upper panel). […]

[4] = Oral bioavailability estimated from allograft survival p.o. versus i.v.; details: ACI, rat, in vivo, 80 mg/kg p.o. gave similar survivals as 10 mg/kg i.v.
Description: To test the in vivo effects, recipients of kidney allografts were treated with 649641P (NC1153) for 7 days beginning immediately after transplantation. […] A mean survival time (MST) and SD was calculated for each group from 5-6 experiments.

LEW kidney allografts = experiment: Rat kidney allograft survival (LEW donors to ACI recipients); format: in vivo
[5] = 160 mg/kg NC1153 oral gavage 7 days, thereafter 3×/week up to 90 days

CN(C)CC1CCCCCCCCCC(CN(C)C)C1=O (mixture of isomers) [649641P (NC1153)]
IC50 ([1]; T-cell, 1 nM IL-4, read-out: IC50, IL4 driven cell growth): ~2500 nM
IC50 ([1]; T-cell, 1 nM IL-7, read-out: IC50, IL7 driven cell growth): ~2500 nM
IC50 ([1]; IL-2 driven T-cell growth, 16 hours drug, [3H]-thymidine, read-out: IC50, disrupting cell growth): ~2500 nM
IL2, IL4 or IL7 driven growth normalized to untreated controls ([1]; dose dependent): inhibits IL2, IL4 or IL7 driven growth
effectiveness for inhibiting Jak3- versus Jak2-dependent proliferation ([2]; 1 nM IL-2 vs 1 nM PRL, 0-100 μM, 16 hours): 3 fold
selective inhibition of IL-2/Jak3-dependent versus PRL/Jak2-dependent T-cell proliferation ([2]; IL-2 vs PRL stimulated): selectively inhibits γc/Jak3-dependent but not PRL/Jak2-dependent cell proliferation
inhibition of cell proliferation in response to IL-2, IL-4 and IL-7 ([2]; as printed: Nb2-11c cells): equally effective
tyrosine phosphorylation of adapter protein Shc (adapter protein Shc): inhibited tyrosine phosphorylation
Jak2/Stat5a activation by prolactin [3]: fails to inhibit
bioavailability [4]: ~12.5%
survival times of recipients surviving beyond 90 days (LEW kidney allografts; [5]): exceeding 200 days
treated recipients surviving beyond treatment of 90 days (LEW kidney allografts; [5]): 75%
MST (LEW kidney allografts; 649641P (NC1153) 240 mg/kg/day p.o. for 14 days): > 60 days
